Data: ChEMBL document CHEMBL3992556, “5-Ethynylarylnaphthalimides as antitumor agents: Synthesis and biological evaluation” (Bioorg Med Chem, 2017)
Activity calls are given as the source filed them. No cut-off for these calls is given here.

What was measured:
HEL = assay: Antiproliferative activity against human HEL cells after 48 hrs by MTT assay; type: functional, cell-based
SK-BR-3 = assay: Antiproliferative activity against human SK-BR-3 cells after 48 hrs by MTT assay; type: functional, cell-based; settings: SK-BR-3, 48 h
HL-60 = assay: Antiproliferative activity against human HL60 cells after 48 hrs by MTT assay; type: functional, cell-based; settings: HL-60, 48 h
Saccharomyces cerevisiae [1] = assay: Induction of DNA damage in Saccharomyces cerevisiae FM588 expressing rad52 gene assessed as growth inhibition at 5 to 100 uM after 24 hrs; type: functional
Saccharomyces cerevisiae [2] = assay: Induction of DNA damage in Saccharomyces cerevisiae FM888 harboring rad52 deletion mutant assessed as growth inhibition at 5 to 100 uM after 24 hrs; type: functional
[3] = molecular target: DNA topoisomerase 2-alpha (Homo sapiens) (UniProt P11388); assay: Inhibition of human topoisomerase-2 alpha assessed as reduction in relaxation of supercoiled pRYG DNA at 100 uM after 30 min by agarose gel electrophoresis
[4] = molecular target: DNA topoisomerase 2-alpha (Homo sapiens) (UniProt P11388); assay: Poison activity at human topoisomerase-2 alpha assessed as increase in supercoiled pRYG DNA cleavage at 100 uM after 10 min

DNA topoisomerase 2-alpha (Homo sapiens), sequence (P11388 whole entry): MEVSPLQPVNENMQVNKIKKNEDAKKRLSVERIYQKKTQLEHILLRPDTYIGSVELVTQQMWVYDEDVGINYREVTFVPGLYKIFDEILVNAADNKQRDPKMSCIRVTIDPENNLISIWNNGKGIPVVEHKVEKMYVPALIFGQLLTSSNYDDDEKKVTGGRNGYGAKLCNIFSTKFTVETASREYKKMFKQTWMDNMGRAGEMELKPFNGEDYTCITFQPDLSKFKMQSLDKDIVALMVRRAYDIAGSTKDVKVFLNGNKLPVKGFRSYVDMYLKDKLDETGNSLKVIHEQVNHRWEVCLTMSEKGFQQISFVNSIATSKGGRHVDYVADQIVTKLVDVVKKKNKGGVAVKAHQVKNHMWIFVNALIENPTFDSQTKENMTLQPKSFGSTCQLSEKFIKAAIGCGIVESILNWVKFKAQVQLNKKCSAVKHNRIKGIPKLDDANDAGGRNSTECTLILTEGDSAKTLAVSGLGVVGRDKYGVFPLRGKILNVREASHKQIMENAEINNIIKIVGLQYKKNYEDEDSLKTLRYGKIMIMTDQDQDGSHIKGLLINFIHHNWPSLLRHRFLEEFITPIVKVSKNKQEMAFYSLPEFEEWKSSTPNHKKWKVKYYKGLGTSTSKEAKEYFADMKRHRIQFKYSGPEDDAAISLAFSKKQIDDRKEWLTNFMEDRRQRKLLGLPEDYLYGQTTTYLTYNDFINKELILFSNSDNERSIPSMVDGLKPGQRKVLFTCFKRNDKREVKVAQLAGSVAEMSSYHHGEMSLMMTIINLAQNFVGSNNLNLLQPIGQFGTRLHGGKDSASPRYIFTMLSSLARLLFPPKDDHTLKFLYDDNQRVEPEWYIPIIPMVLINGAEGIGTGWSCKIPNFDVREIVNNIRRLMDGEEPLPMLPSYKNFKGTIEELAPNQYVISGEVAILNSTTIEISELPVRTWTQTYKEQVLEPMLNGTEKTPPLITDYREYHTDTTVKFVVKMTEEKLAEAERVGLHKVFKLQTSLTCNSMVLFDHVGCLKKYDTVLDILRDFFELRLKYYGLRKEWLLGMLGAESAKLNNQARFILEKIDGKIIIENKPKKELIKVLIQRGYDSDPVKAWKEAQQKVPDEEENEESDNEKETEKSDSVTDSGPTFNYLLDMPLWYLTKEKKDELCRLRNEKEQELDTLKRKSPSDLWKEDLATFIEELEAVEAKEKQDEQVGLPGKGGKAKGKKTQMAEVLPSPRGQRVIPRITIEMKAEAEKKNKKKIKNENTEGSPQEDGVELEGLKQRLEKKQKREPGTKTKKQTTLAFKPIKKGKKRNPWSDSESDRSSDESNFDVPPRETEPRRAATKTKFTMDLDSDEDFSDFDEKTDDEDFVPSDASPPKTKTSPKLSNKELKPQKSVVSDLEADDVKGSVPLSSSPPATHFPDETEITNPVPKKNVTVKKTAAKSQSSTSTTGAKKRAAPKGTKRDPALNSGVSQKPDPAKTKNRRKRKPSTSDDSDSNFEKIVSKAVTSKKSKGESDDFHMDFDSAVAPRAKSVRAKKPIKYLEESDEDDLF

Structure (SMILES)	IC50 (SK-BR-3) [µM]	IC50 (HL-60) [µM]	Topoisomerase 2-alpha inhibition (active/not active) [3]	IC50 (HEL) [µM]	Activity (Saccharomyces cerevisiae [1])	Activity (Saccharomyces cerevisiae [2])	Activity [4]
CN(C)CCN1C(=O)c2cccc3cc(N)cc(c23)C1=O [AMONAFIDE]		3.4		4			
C#Cc1cc2c3c(cccc3c1)C(=O)N(CCN(C)C)C2=O	> 10	10		8.1	Active	Active	
COc1cccc(C#Cc2cc3c4c(cccc4c2)C(=O)N(CCN(C)C)C3=O)c1	2	1		1	Active	Active	
CN(C)CCN1C(=O)c2cccc3cc(C#Cc4ccc(O)cc4)cc(c23)C1=O	2.1	5.7		13.1	inactive	inactive	
COc1cc([C@@H]2c3cc4c(cc3[C@@H](O[C@@H]3O[C@@H]5CO[C@@H](C)O[C@H]5[C@H](O)[C@H]3O)[C@H]3COC(=O)[C@H]23)OCO4)cc(OC)c1O							Active
CN(C)CCN1C(=O)c2cccc3cc(C#Cc4ccoc4)cc(c23)C1=O	9.6	3.5	Active	5.6	Active	Active	

More lines, main results first:

IC50 (SK-BR-3) [µM]	IC50 (HL-60) [µM]	Topoisomerase 2-alpha inhibition (active/not active) [3]	Structure (SMILES)	IC50 (HEL) [µM]	Activity (Saccharomyces cerevisiae [1])	Activity (Saccharomyces cerevisiae [2])	Activity [4]
2.1	1.1		COc1ccc(C#Cc2cc3c4c(cccc4c2)C(=O)N(CCN(C)C)C3=O)cc1	2	Active	Active	
0.1	2.3	inactive	CN(C)CCN1C(=O)c2cccc3cc(C#Cc4cccc(C(F)(F)F)c4)cc(c23)C1=O	2.2	Active	Active	
4.6	4.6	Active	CN(C)CCN1C(=O)c2cccc3cc(C#Cc4ccccc4)cc(c23)C1=O	1.4	Active	Active	
> 10	5.4	Active	CN(C)CCN1C(=O)c2cccc3cc(C#Cc4ccsc4)cc(c23)C1=O	5	Active	Active	Active
> 10	13.6		CN(C)CCN1C(=O)c2cccc3cc(C#Cc4cccc([N+](=O)[O-])c4)cc(c23)C1=O	21.7	Active	Active	
> 30	10.2		CN(C)CCN1C(=O)c2cccc3cc(C#Cc4cccc(O)c4)cc(c23)C1=O	1.2	Active	Active	
